Where two headings read alike, the source gives them in different places.
Experiments:
[1] = tested on: Parkinson's disease; settings: Refs. 19-21; cited from earlier work
[2] = Solubility of LD derivatives in potential solvents; format: physicochemical
Description: The solubility of LD, LD methyl ester (LDME) and LD ethyl ester (LDEE) was examined in several potential solvents, with increasing amounts of the three LD derivatives being added to a constant volume of 5% propionic acid in water or 10% propionic acid in propylene glycol.

[3] = Pilot experiment of transdermal delivery, LDEE in serum by HPLC with electrochemical detector; format: in vivo; settings: two human volunteers, 24 h dermal exposure, propylene glycol with 10% propionic acid and 5% sodium deoxycholate or sodium dodecylsulfate
Description: In a pilot experiment of transdermal delivery, two human volunteers were exposed for 24 h to LDEE dissolved in propylene glycol containing 10% propionic acid and 5% of either sodium deoxycholate (one volunteer) or sodium dodecylsulfate (one volunteer). Blood samples were taken at various times after the application of the LDEE on the skin and LDEE in the serum was separated on high performance liquid chromatography and determined with an electrochemical detector. The protocol and the details of this pilot study are described in the enclosed appendix. […] These levels are considered appropriate for obtaining therapeutic effect in Parkinson's patients.

[4] = Stability of LDEE in formulations by thin layer chromatography; format: physicochemical
Description: The stability of LDEE was tested in several combinations of potential components of the formulation. For this purpose, 500 mg LDEE was dissolved in 1 ml 5% propionic acid just before the beginning of the stability experiment. In parallel, 500 mg LDEE was dissolved in 1 ml propylene glycol containing 10% propionic acid. These preparations of LDEE were used as stock solutions for several tested formulations as follows: […]
1) LDEE in aqueous solution of 5% propionic as prepared above.
2) Same solution as in No. 1 above+5% sodium deoxycholate.
3) Same solution as in No. 1 above+5% sodium dodecylsulfate.
4) Same solution as in No. 1 above+5% Tween-20.
5) Same solution as in No. 1 above+5% tritonX100.
6) Same solution as in No. 1 above+glycerol at a ratio of 1:1.
7) Same solution as in No. 1 above+propylene glycol at a ratio of 2:1.
8) LDEE in propylene glycol containing 10% propionic acid.
9) Same solution as in No. 8 above+5% sodium deoxycholate.
10) Same solution as in No. 8 above+5% sodium dodecylsulfate.
The above LDEE formulations were run on a thin layer chromatography (on silica gel—Merk Art. 5735; and on cellulose—Merk Art. 5574) for a qualitative detection of LDEE and its degradative products. The various LDEE formulations were kept at room temperature for several days and separation of the LDEE and its degradative products on the thin layer chromatography were repeated at various times after dissolving the LDEE. The running solvents for the thin layer chromatography were:
a) Propanol: Butanoic Acid: Water (20:4:10).
b) Dichloromethane: Acetone: Ethyl-Acetate: Methanol (35:15:1:0.25).

solubility [2]	blood levels of LDEE after dermal application [3]	degradative products on thin layer chromatography ([4]; 24 h after dissolving, room temperature, formulations that contained tritonX100)	degradative products on thin layer chromatography ([4]; 24 h after dissolving, room temperature, other formulations (without tritonX100))	degradative products on thin layer chromatography ([4]; 48 h after dissolving, room temperature, all the aqueous solutions)	degradative products on thin layer chromatography ([4]; immediately after the preparation, all formulations)	time LDEE was stable ([4]; propylene glycol-based formulations, room temperature)	solubility ([2]; 5% propionic acid in water)	solubility ([2]; 10% propionic acid in propylene glycol)	Compound	LD plasma levels at which therapeutic effects were noticed [1] [ng/mL]	order of degradation among aqueous formulations ([4]; 48 h after dissolving, room temperature, aqueous solutions)
negligible amounts	–	–	–	–	–	–	–	–	N[C@@H](Cc1ccc(O)c(O)c1)C(=O)O [LD, Levodopa]	300 to 800	–
at least 660 mg in 1 ml	about 200 ng/ml	Degradative products appeared	did not show significant degradation	degradative products appeared	No degradative products were seen	more than 48 h	–	–	CCOC(=O)[C@@H](N)Cc1ccc(O)c(O)c1 [LDEE, levodopa-ethyl-ester]	–	formulation containing tritonX100>formulation containing Tween-20 >formulation containing sodium dodecylsulfate=formulation containing sodium deoxycholate
–	–	–	–	–	–	–	negligible amounts	negligible amounts	COC(=O)[C@@H](N)Cc1ccc(O)c(O)c1 [LDME, LD methyl ester]	–	–
